Reference: article PMC10044120, “Potent and selective covalent inhibition of the papain-like protease from SARS-CoV-2” (Nature Communications, 2023)
Like-named read-outs stand apart in the source and are kept apart here.

What was measured:
USP2 = biological target: T1, USP2 (Homo sapiens, UniProt O75604); test: biochemical; conditions: USP2 10 nM, Ub-rhodamine110
T1 construct: USP2c, USP4, USP7, USP8c, USP15, USP30WT, and UCH-L1; purchased LifeSensors, Inc. (Malvern, PA)

[1] = system: viral replication in Vero E6 cells; conditions: viral replication in Vero E6 cells; cited from earlier work
in vitro = conditions: African green monkey, cytotoxicity, %cell viability
USP8 = biological target: T2, USP8 (Homo sapiens, UniProt P40818); test: biochemical; conditions: USP8 10 nM, Ub-rhodamine110
T2 construct: USP2c, USP4, USP7, USP8c, USP15, USP30WT, and UCH-L1; purchased LifeSensors, Inc. (Malvern, PA)

USP4 = biological target: T3, USP4 (Homo sapiens, UniProt Q13107); test: DUB selectivity assay, USP4 (Ub-rhodamine110); type: biochemical; conditions: USP4 10 nM, Ub-rhodamine110; read-out: IC50
T3 construct: purchased LifeSensors, Inc. (Malvern, PA)
T3 sequence (Q13107 1-963): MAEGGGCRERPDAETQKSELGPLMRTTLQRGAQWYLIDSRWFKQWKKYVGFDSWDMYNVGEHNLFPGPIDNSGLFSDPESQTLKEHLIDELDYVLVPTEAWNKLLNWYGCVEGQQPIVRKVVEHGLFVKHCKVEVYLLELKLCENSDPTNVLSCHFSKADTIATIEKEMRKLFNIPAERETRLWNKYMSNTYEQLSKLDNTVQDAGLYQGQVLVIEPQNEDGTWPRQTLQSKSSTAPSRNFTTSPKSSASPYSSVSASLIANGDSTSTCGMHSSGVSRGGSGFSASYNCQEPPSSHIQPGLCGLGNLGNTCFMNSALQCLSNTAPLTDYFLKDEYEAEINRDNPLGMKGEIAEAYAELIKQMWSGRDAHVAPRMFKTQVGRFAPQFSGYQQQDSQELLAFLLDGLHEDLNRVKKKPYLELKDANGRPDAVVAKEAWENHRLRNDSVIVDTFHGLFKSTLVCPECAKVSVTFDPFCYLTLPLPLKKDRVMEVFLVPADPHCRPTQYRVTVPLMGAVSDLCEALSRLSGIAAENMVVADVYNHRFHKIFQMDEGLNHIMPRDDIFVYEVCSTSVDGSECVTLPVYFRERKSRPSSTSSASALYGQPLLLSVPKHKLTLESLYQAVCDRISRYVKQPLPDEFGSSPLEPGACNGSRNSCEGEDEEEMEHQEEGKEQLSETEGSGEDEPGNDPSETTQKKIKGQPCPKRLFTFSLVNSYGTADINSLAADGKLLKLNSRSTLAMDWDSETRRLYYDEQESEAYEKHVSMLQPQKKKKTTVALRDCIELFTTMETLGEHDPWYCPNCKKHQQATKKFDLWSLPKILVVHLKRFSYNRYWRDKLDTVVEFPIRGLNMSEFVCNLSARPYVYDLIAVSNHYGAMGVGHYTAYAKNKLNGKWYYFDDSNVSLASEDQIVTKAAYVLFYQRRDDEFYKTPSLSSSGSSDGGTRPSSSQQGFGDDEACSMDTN

SARS-CoV PLpro = conditions: cited from earlier work
SARS-CoV-2 PLpro [2] = biological target: T4, SARS-CoV-2 PLpro (Severe acute respiratory syndrome coronavirus 2, UniProt P0DTD1); test: biochemical; conditions: PLpro 50 nM, Ub-rhodamine110
USP15 = biological target: T5, USP15 (Homo sapiens, UniProt Q9Y4E8); test: DUB selectivity assay, USP15 (Ub-rhodamine110); type: biochemical; conditions: USP15 1 nM, Ub-rhodamine110; read-out: IC50
T5 construct: purchased LifeSensors, Inc. (Malvern, PA)
T5 sequence (Q9Y4E8 1-981): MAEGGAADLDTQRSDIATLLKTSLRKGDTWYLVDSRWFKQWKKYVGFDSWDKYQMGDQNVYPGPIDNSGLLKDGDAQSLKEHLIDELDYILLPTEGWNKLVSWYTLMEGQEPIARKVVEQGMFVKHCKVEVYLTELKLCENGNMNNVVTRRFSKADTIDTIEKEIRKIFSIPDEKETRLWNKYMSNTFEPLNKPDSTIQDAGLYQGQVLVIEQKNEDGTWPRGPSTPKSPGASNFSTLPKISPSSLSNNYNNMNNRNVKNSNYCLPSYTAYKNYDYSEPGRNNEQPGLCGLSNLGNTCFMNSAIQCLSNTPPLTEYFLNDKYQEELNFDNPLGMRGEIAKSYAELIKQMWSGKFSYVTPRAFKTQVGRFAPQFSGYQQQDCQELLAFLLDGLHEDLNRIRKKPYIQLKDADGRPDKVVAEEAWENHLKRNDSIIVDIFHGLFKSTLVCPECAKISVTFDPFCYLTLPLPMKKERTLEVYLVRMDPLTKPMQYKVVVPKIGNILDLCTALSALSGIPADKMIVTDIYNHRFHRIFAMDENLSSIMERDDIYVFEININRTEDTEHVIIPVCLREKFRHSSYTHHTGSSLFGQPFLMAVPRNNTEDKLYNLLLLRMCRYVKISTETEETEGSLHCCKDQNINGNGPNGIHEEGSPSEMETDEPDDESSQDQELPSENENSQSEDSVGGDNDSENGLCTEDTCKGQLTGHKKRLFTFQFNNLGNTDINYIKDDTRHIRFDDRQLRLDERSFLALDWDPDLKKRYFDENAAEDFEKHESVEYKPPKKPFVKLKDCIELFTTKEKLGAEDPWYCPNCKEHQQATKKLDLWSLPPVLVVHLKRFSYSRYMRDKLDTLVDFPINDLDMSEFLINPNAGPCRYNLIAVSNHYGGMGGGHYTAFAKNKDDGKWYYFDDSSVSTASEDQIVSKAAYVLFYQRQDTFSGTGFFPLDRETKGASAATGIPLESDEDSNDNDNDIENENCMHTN

USP7 = biological target: T6, USP7 (Homo sapiens, UniProt Q93009); test: biochemical; conditions: USP7 5 nM, Ub-CHOP2
T6 construct: purchased LifeSensors, Inc. (Malvern, PA)

[3] = system: SARS-CoV-2 isolate USA-WA1/2020; test: microbe, parasite or virus in culture; conditions: duplicate wells
USP30 = biological target: T7, USP30 (Homo sapiens, UniProt Q70CQ3); test: biochemical; conditions: USP30 10 nM, Ub-rhodamine110
T7 construct: purchased LifeSensors, Inc. (Malvern, PA)

Vero E6 cells = conditions: African green monkey, 48 h
UCHL1 = biological target: T8, UCHL1 (Homo sapiens, UniProt P09936); test: biochemical; conditions: UCHL1 10 nM, Ub-rhodamine110
T8 construct: purchased LifeSensors, Inc. (Malvern, PA)

PLpro from SARS-CoV-2 = PLpro from SARS-CoV-2 (Severe acute respiratory syndrome coronavirus 2, UniProt P0DTD1); test: biochemical; type: biochemical
[4] = system: SARS-CoV-2 isolate USA-WA1/2020; conditions: read-out: cytopathic effect, % cell viability, duplicate wells
SARS-CoV-2 PLpro [5] = biological target: T4, SARS-CoV-2 PLpro; test: biochemical; conditions: PLpro 10 nM, ISG15-CHOP2

T2 sequence (P40818 777-1109): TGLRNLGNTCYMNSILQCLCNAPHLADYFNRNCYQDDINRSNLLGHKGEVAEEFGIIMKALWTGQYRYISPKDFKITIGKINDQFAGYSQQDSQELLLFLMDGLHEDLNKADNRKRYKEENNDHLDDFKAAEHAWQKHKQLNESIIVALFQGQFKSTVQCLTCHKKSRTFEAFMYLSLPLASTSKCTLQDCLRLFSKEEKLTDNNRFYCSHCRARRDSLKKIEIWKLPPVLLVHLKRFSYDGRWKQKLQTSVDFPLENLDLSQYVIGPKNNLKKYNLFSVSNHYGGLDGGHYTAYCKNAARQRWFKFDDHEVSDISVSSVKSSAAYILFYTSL
T7 sequence (Q70CQ3 whole entry): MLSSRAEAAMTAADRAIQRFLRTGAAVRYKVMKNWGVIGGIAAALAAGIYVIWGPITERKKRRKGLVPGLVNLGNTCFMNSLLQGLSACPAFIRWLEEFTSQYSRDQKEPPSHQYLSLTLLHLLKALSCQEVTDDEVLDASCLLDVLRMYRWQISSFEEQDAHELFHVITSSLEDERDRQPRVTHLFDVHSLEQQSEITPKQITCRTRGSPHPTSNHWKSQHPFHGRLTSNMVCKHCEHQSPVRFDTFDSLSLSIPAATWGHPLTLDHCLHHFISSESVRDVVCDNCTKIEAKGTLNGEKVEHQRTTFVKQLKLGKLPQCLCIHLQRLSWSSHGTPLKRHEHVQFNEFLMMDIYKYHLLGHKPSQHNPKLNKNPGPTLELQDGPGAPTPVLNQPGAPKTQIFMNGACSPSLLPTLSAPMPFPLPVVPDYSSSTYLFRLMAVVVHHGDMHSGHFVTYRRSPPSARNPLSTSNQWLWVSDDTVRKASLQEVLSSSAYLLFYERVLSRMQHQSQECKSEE
T6 sequence (Q93009 whole entry): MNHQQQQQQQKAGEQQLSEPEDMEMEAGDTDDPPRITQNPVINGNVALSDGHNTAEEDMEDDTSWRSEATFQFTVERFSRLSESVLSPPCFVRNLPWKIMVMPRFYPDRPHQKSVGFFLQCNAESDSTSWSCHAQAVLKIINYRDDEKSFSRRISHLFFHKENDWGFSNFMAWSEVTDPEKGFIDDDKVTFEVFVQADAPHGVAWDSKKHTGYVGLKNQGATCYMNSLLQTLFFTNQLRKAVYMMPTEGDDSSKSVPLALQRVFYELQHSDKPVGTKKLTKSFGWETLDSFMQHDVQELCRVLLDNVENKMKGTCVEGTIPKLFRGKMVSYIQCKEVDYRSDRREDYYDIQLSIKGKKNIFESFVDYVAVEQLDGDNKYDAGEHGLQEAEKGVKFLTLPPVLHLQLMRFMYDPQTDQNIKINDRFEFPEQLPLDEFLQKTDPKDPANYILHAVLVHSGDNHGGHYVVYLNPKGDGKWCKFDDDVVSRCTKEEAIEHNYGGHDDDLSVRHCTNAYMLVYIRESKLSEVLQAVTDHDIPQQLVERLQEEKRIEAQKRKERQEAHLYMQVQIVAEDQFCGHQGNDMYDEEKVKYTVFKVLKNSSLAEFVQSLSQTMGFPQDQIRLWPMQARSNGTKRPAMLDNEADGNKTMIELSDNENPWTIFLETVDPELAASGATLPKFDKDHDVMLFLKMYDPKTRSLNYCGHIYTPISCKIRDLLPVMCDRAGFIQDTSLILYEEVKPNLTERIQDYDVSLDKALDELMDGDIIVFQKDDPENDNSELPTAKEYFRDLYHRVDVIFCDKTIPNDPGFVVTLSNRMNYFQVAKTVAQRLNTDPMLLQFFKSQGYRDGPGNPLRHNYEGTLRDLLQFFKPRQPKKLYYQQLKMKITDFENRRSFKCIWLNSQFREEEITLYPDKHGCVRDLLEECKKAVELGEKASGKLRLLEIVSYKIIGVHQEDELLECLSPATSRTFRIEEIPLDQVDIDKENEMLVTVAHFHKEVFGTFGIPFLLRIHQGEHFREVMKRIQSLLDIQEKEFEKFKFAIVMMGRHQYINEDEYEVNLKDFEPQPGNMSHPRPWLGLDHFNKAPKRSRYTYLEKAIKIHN
T8 sequence (P09936 whole entry): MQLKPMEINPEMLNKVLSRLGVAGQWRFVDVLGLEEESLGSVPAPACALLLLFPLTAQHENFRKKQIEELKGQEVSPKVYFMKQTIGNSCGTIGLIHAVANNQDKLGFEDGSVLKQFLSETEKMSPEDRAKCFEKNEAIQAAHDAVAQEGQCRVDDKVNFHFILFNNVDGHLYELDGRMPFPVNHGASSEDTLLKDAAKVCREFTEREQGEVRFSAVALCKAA
T1 sequence (O75604 267-599): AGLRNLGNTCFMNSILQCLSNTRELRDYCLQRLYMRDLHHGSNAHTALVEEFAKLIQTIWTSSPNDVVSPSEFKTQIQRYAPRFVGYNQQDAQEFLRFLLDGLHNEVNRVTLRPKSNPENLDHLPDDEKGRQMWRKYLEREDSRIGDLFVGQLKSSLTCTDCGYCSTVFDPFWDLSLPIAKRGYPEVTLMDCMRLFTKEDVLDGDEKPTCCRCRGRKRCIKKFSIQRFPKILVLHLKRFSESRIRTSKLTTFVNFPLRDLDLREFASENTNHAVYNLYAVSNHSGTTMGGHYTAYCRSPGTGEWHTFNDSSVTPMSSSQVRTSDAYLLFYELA

## CC(=O)Nc1ccc(C)c(C(=O)N[C@H](C)c2cccc3ccccc23)c1 [Compound 15, (R)-5-acetamido-2-methyl-N-(1-(naphthalen-1-yl)ethyl)benzamide]
USP2
  IC50: > 30 µM
[1]
  EC50: 13.1 µM
In vitro
  viability at 48 h, 2.08 µM: 85.5%
  viability at 48 h, 8.33 µM: 85.8%
  viability at 48 h, 16.67 µM: 81.3%
  viability at 48 h, 33.33 µM: 64.9%
USP8
  IC50: > 30 µM
USP4
  IC50: > 30 µM
SARS-CoV PLpro
  IC50: 2.6 µM
SARS-CoV-2 PLpro [2]
  Hill slope: 0.376
  IC50: > 30 µM
USP15
  IC50: > 30 µM
USP7
  IC50: > 30 µM
[3]; Severe acute respiratory syndrome coronavirus 2, Vero C1008, read-out: cytopathic effect, % cell viability, [inhibitor] 8.33 uM
  inhibition at 8.33 µM: 5.51%
[3]; Severe acute respiratory syndrome coronavirus 2, Vero C1008, read-out: cytopathic effect, % cell viability, [inhibitor] 16.67 uM
  inhibition at 16.67 µM: 8.63%
USP30
  IC50: > 30 µM
Vero E6 cells; 2.08 µM
  cytotoxicity, %cell viability: 75.89%
Vero E6 cells; 8.33 µM
  cytotoxicity, %cell viability: 83.23%
Vero E6 cells; 16.67 µM
  cytotoxicity, %cell viability: 80.07%
Vero E6 cells; 33.33 µM
  cytotoxicity, %cell viability: 59.25%
UCHL1
  IC50: > 30 µM
PLpro from SARS-CoV-2; 0.5 h, inhibitor 0.02 uM
  remaining activity at 0.02 µM: 115%
PLpro from SARS-CoV-2; 0.5 h, inhibitor 0.06 uM
  remaining activity at 0.06 µM: 104%
PLpro from SARS-CoV-2; 0.5 h, inhibitor 0.20 uM
  remaining activity at 0.2 µM: 110%
PLpro from SARS-CoV-2; 0.5 h, inhibitor 2.01 uM
  remaining activity at 2.01 µM: 61.8%
PLpro from SARS-CoV-2; 0.5 h, inhibitor 6.34 uM
  remaining activity at 6.34 µM: 56.9%
PLpro from SARS-CoV-2; 0.5 h, inhibitor 20.00 uM
  remaining activity at 20 µM: 26.7%
PLpro from SARS-CoV-2; after 30-min incubation, purified PLpro, Z-RLRGG-AMC substrate
  IC50: 6.2 µM
[4]; [inhibitor] 8.33 uM, 8.33 µM
  inhibition: 3.31%
[4]; [inhibitor] 16.67 uM, 16.67 µM
  inhibition: 6.9%
SARS-CoV-2 PLpro [5]
  Hill slope: 0.969
  IC50: > 30 µM
